# Source: PubChem BioAssay (NCI)
#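 Dose response: 5 concentrations. Exposure: 48 h. Format: 96-well plates. Endpoint: linear interpolation; highest concentration if not reached. Here, GI50 denotes the concentration required for 50% inhibition of growth. The concentration for full growth arrest is given as TGI.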
# Legend:
# Test in all cases: growth of human tumour cells (NCI), 48 h
# A549 NSCLC = test system: A549 NSCLC
# NCI-H23 lung = test system: NCI-H23 lung
# UACC-62 melanoma = test system: UACC-62 melanoma
# SW-620 colon = test system: SW-620 colon
# IGROV1 ovarian = test system: IGROV1 ovarian
# NCI-H460 lung = test system: NCI-H460 lung
# MOLT-4 leukemia = test system: MOLT-4 leukemia
# CAKI-1 renal = test system: CAKI-1 renal
# T-47D breast = test system: T-47D breast
# HOP-62 NSCLC = test system: HOP-62 NSCLC
# SF-268 CNS = test system: SF-268 CNS
# K-562 leukemia = test system: K-562 leukemia
# HL-60(TB) leukemia = test system: HL-60(TB) leukemia
# PC-3 prostate = test system: PC-3 prostate
# ACHN renal = test system: ACHN renal
# UACC-257 melanoma = test system: UACC-257 melanoma
# SN12C renal = test system: SN12C renal
# SF-295 CNS = test system: SF-295 CNS
# NCI-H226 lung = test system: NCI-H226 lung
# MCF7 breast = test system: MCF7 breast
# UO-31 renal = test system: UO-31 renal
# MDA-MB-435 = test system: MDA-MB-435
# 786-0 renal = test system: 786-0 renal
# HCT-116 colon = test system: HCT-116 colon
# DU-145 prostate = test system: DU-145 prostate
# SK-MEL-28 melanoma = test system: SK-MEL-28 melanoma
# OVCAR-8 ovarian = test system: OVCAR-8 ovarian
# LOX IMVI melanoma = test system: LOX IMVI melanoma
# SK-OV-3 ovarian = test system: SK-OV-3 ovarian
# EKVX NSCLC = test system: EKVX NSCLC
# HCC-2998 colon = test system: HCC-2998 colon
# SNB-75 CNS = test system: SNB-75 CNS
# RXF 393 renal = test system: RXF 393 renal
# TK-10 renal = test system: TK-10 renal
# COLO 205 colon = test system: COLO 205 colon
# HS 578T breast = test system: HS 578T breast
# HCT-15 colon = test system: HCT-15 colon
# SR leukemia = test system: SR leukemia
# KM12 colon = test system: KM12 colon
# OVCAR-4 ovarian = test system: OVCAR-4 ovarian
# NCI-H522 lung = test system: NCI-H522 lung
# SK-MEL-2 melanoma = test system: SK-MEL-2 melanoma
# U251 CNS = test system: U251 CNS
# RPMI-8226 leukemia = test system: RPMI-8226 leukemia
# SF-539 CNS = test system: SF-539 CNS
# OVCAR-5 ovarian = test system: OVCAR-5 ovarian
# MALME-3M melanoma = test system: MALME-3M melanoma
# BT-549 breast = test system: BT-549 breast
# SNB-19 CNS = test system: SNB-19 CNS
# SK-MEL-5 melanoma = test system: SK-MEL-5 melanoma
# HT29 colon = test system: HT29 colon
# HOP-92 NSCLC = test system: HOP-92 NSCLC
# MDA-MB-231 breast = test system: MDA-MB-231 breast
# OVCAR-3 ovarian = test system: OVCAR-3 ovarian
# NCI/ADR-RES ovarian = test system: NCI/ADR-RES ovarian
compound,measurement,setting,value
COc1cccc2c1-c1ccccc1C2=O,GI50,A549 NSCLC,2.65 µM
same,TGI,A549 NSCLC,> 100 µM
same,GI50,NCI-H23 lung,4.2 µM
same,TGI,NCI-H23 lung,> 100 µM
same,GI50,UACC-62 melanoma,0.467 µM
same,TGI,UACC-62 melanoma,> 100 µM
same,GI50,SW-620 colon,2.09 µM
same,TGI,SW-620 colon,> 100 µM
same,GI50,IGROV1 ovarian,1.46 µM
same,TGI,IGROV1 ovarian,> 100 µM
same,GI50,NCI-H460 lung,0.628 µM
same,TGI,NCI-H460 lung,11.5 µM
same,GI50,MOLT-4 leukemia,4.25 µM
same,TGI,MOLT-4 leukemia,> 100 µM
same,GI50,CAKI-1 renal,0.543 µM
same,TGI,CAKI-1 renal,> 100 µM
same,GI50,T-47D breast,6.7 µM
same,TGI,T-47D breast,> 100 µM
same,GI50,HOP-62 NSCLC,1.65 µM
same,TGI,HOP-62 NSCLC,> 100 µM
same,GI50,SF-268 CNS,3.17 µM
same,TGI,SF-268 CNS,> 100 µM
same,GI50,K-562 leukemia,0.801 µM
same,TGI,K-562 leukemia,> 100 µM
same,GI50,HL-60(TB) leukemia,2.19 µM
same,TGI,HL-60(TB) leukemia,6.37 µM
same,GI50,PC-3 prostate,2.22 µM
same,TGI,PC-3 prostate,> 100 µM
same,GI50,ACHN renal,0.783 µM
same,TGI,ACHN renal,> 100 µM
same,GI50,UACC-257 melanoma,> 100 µM
same,TGI,UACC-257 melanoma,> 100 µM
same,GI50,SN12C renal,4.85 µM
same,TGI,SN12C renal,> 100 µM
same,GI50,SF-295 CNS,0.352 µM
same,TGI,SF-295 CNS,> 100 µM
same,GI50,NCI-H226 lung,1.19 µM
same,TGI,NCI-H226 lung,> 100 µM
same,GI50,MCF7 breast,1.14 µM
same,TGI,MCF7 breast,> 100 µM
same,GI50,UO-31 renal,4.46 µM
same,TGI,UO-31 renal,> 100 µM
same,GI50,MDA-MB-435,0.225 µM
same,TGI,MDA-MB-435,0.79 µM
same,GI50,786-0 renal,3.15 µM
same,TGI,786-0 renal,> 100 µM
same,GI50,HCT-116 colon,3.14 µM
same,TGI,HCT-116 colon,17.4 µM
same,GI50,DU-145 prostate,2.9 µM
same,TGI,DU-145 prostate,> 100 µM
same,GI50,SK-MEL-28 melanoma,3.85 µM
same,TGI,SK-MEL-28 melanoma,> 100 µM
same,GI50,OVCAR-8 ovarian,3.33 µM
same,TGI,OVCAR-8 ovarian,> 100 µM
same,GI50,LOX IMVI melanoma,2.24 µM
same,TGI,LOX IMVI melanoma,> 100 µM
same,GI50,SK-OV-3 ovarian,1.03 µM
same,TGI,SK-OV-3 ovarian,7.49 µM
same,GI50,EKVX NSCLC,9.49 µM
same,TGI,EKVX NSCLC,> 100 µM
same,GI50,HCC-2998 colon,3.35 µM
same,TGI,HCC-2998 colon,47.1 µM
same,GI50,SNB-75 CNS,0.431 µM
same,TGI,SNB-75 CNS,> 100 µM
same,GI50,RXF 393 renal,0.329 µM
same,TGI,RXF 393 renal,49.2 µM
same,GI50,TK-10 renal,9.8 µM
same,TGI,TK-10 renal,> 100 µM
same,GI50,COLO 205 colon,1.91 µM
same,TGI,COLO 205 colon,4.62 µM
same,GI50,HS 578T breast,0.815 µM
same,TGI,HS 578T breast,> 100 µM
same,GI50,HCT-15 colon,2.71 µM
same,TGI,HCT-15 colon,> 100 µM
same,GI50,SR leukemia,3.66 µM
same,TGI,SR leukemia,> 100 µM
same,GI50,KM12 colon,3.42 µM
same,TGI,KM12 colon,> 100 µM
same,GI50,OVCAR-4 ovarian,2.69 µM
same,TGI,OVCAR-4 ovarian,> 100 µM
same,GI50,NCI-H522 lung,0.276 µM
same,TGI,NCI-H522 lung,4.33 µM
same,GI50,SK-MEL-2 melanoma,2.49 µM
same,TGI,SK-MEL-2 melanoma,> 100 µM
same,GI50,U251 CNS,2.9 µM
same,TGI,U251 CNS,> 100 µM
same,GI50,RPMI-8226 leukemia,3.7 µM
same,TGI,RPMI-8226 leukemia,> 100 µM
same,GI50,SF-539 CNS,1.31 µM
same,TGI,SF-539 CNS,5.76 µM
same,GI50,OVCAR-5 ovarian,5.32 µM
same,TGI,OVCAR-5 ovarian,> 100 µM
same,GI50,MALME-3M melanoma,6.54 µM
same,TGI,MALME-3M melanoma,> 100 µM
same,GI50,BT-549 breast,1.17 µM
same,TGI,BT-549 breast,> 100 µM
same,GI50,SNB-19 CNS,2.52 µM
same,TGI,SNB-19 CNS,> 100 µM
same,GI50,SK-MEL-5 melanoma,2.31 µM
same,TGI,SK-MEL-5 melanoma,13.5 µM
same,GI50,HT29 colon,3.03 µM
same,TGI,HT29 colon,12.5 µM
same,GI50,HOP-92 NSCLC,4.6 µM
same,TGI,HOP-92 NSCLC,85.2 µM
same,GI50,MDA-MB-231 breast,3.25 µM
same,TGI,MDA-MB-231 breast,48.3 µM
Nc1ccn(C2OC(CO)C3[O][Sn]([c]4ccccc4)([c]4ccccc4)[O]C32)c(=O)n1 (stereo unspecified),GI50,A549 NSCLC,0.0344 µM
same,GI50,NCI-H23 lung,0.39 µM
same,GI50,UACC-62 melanoma,6.36 µM
same,GI50,SW-620 colon,0.803 µM
same,TGI,SW-620 colon,61.5 µM
same,GI50,NCI-H460 lung,0.0187 µM
same,GI50,CAKI-1 renal,4.66 µM
same,GI50,T-47D breast,15.3 µM
same,GI50,HOP-62 NSCLC,1.51 µM
same,GI50,SF-268 CNS,1.79 µM
same,GI50,K-562 leukemia,53.2 µM
same,GI50,OVCAR-3 ovarian,34.8 µM
same,GI50,ACHN renal,0.361 µM
same,GI50,NCI/ADR-RES ovarian,4.73 µM
same,GI50,MCF7 breast,0.0984 µM
same,GI50,UO-31 renal,0.221 µM
same,GI50,MDA-MB-435,6.25 µM
same,GI50,786-0 renal,0.656 µM
same,GI50,HCT-116 colon,0.024 µM
same,GI50,DU-145 prostate,0.149 µM
same,TGI,DU-145 prostate,19.6 µM
same,GI50,SK-OV-3 ovarian,26.6 µM
same,GI50,EKVX NSCLC,34.2 µM
same,GI50,HCC-2998 colon,0.0629 µM
same,TGI,HCC-2998 colon,17.9 µM
same,GI50,SNB-75 CNS,14 µM
same,TGI,SNB-75 CNS,50.1 µM
same,GI50,RXF 393 renal,1.73 µM
same,TGI,RXF 393 renal,22.3 µM
same,GI50,TK-10 renal,32.3 µM
same,GI50,COLO 205 colon,0.141 µM
same,GI50,HS 578T breast,29.5 µM
same,GI50,HCT-15 colon,15 µM
same,GI50,KM12 colon,35.5 µM
same,GI50,OVCAR-4 ovarian,43.1 µM
same,GI50,NCI-H522 lung,10.8 µM
same,TGI,NCI-H522 lung,29 µM
same,GI50,U251 CNS,0.617 µM
same,TGI,U251 CNS,22.8 µM
same,GI50,RPMI-8226 leukemia,13.7 µM
same,TGI,RPMI-8226 leukemia,49.1 µM
same,GI50,SF-539 CNS,2.17 µM
same,TGI,SF-539 CNS,20.5 µM
same,GI50,MALME-3M melanoma,17.9 µM
same,GI50,BT-549 breast,30.7 µM
same,GI50,SNB-19 CNS,3.34 µM
same,GI50,SK-MEL-5 melanoma,3.75 µM
same,GI50,HT29 colon,1.45 µM
same,GI50,MDA-MB-231 breast,24.1 µM
same,TGI,MDA-MB-231 breast,82.6 µM
